Assay results from patent EP4603105A1, “PHARMACEUTICAL COMPOSITION CONTAINING CYCLIC COMPOUND HAVING SELECTIVE KRAS INHIBITORY EFFECT AGAINST HRAS AND NRAS” (CHUGAI SEIYAKU KABUSHIKI KAISHA, priority 2022, dated 2024).
Read-outs that look alike come from different tables or passages of the source. *1 amine or outer side, *2 acyl side, *3 side chain or, on linkers, in order; H or OH if unused. Where a SMILES comes first, the peptide text is derived from it. Bridges are numbered along the chain shown (N, C = ends). [ ]: non-standard residue; d: D form. The star is where a group is joined. hPhe(3-Cl-4-CF3) = N[C@@H](CCc1ccc(C(F)(F)F)c(Cl)c1)C(=O)O; NPrPhe(4-CF3) = CCCN[C@@H](Cc1ccc(C(F)(F)F)cc1)C(=O)O; X40 = Cc1ccc(C[C@@H](C(=O)[*:2])N(CC(C)C)[*:1])cc1; Pro(4-spirocPr) = O=C(O)[C@@H]1CC2(CC2)CN1; Abu(4,4,4-F3) = N[C@@H](CC(F)(F)F)C(=O)O; NMeGly(cPent) = CN[C@H](C(=O)O)C1CCCC1; NMeD = CN[C@@H](CC(=O)O)C(=O)O; NMeL = CN[C@@H](CC(C)C)C(=O)O; Morpholide = C1CN(*)CCO1; NMeA = CN[C@@H](C)C(=O)O; Ac5c = NC1(C(=O)O)CCCC1; Aze = O=C(O)[C@@H]1CCN1; Sar = CNCC(=O)O

Tests used:
HRAS wild-type protein = HRAS wild-type protein (Homo sapiens, UniProt P01112); experiment: Binding to HRAS by surface plasmon resonance (SPR), KD and KD ratio to KRAS
HRAS wild-type protein, sequence (P01112 whole entry): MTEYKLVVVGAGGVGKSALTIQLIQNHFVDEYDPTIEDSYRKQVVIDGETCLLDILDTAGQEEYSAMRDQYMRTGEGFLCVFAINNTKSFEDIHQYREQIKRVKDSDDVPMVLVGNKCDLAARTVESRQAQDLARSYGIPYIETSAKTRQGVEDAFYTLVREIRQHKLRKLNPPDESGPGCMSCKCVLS
How it was run: (§1)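 Single-cycle kinetics on GDP-loaded biotin-Avi RAS captured to ~100–300 RU; 75 s ascending injections, 100 µL/min, 30°C. HBS pH 7.4 + 10 mM MgCl2/10 µM GDP/4% DMSO. 1:1 fit, KD.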

[1] = biological target: GDP-bound NRAS wild-type protein (Homo sapiens, UniProt P01111); experiment: Binding to NRAS by surface plasmon resonance (SPR), KD and KD ratio to KRAS
GDP-bound NRAS wild-type protein, sequence (P01111 whole entry): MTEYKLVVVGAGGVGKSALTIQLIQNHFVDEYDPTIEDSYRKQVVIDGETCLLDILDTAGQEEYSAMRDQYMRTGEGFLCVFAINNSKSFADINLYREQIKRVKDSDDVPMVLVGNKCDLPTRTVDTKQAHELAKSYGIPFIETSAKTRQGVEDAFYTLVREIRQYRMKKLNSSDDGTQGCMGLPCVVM
How it was run: as §1

[2] = tested on: human lung cancer strain NCI-H441; type: cell-based
How it was run: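 Proliferation was scored by […] measured after the reagent was added to cultures kept at 37°C in 5% carbon dioxide.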

[3] = ratio of KD for HRAS wild-type protein to KD for KRAS
[4] = ratio of KD for GDP-bound NRAS wild-type protein to KD for KRAS
[5] = ratio of the KD value with respect to HRAS wild-type protein to the KD value with respect to KRAS
[6] = ratio of the KD value with respect to GDP-bound NRAS wild-type protein to the KD value with respect to KRAS

| SMILES | IC50 [2] | HRAS /KRAS (HRAS wild-type protein; [3]) | NRAS /KRAS [1, 4] | HRAS /KRAS (HRAS wild-type protein; [5]) | NRAS /KRAS [1, 6] | IC50 ([2]; NCI-H441 cells, 4 days, CellTiter-Glo, read-out: NCl-H441 IC50) | HRAS /KRAS (HRAS wild-type protein; ratio of KD value for HRAS wild-type protein to KD value for KRAS (SPR)) | NRAS /KRAS ([1]; ratio of KD value for GDP-bound NRAS wild-type protein to KD value for KRAS (SPR)) |
| --- | --- | --- | --- | --- | --- | --- | --- | --- |
| CCO[C@@H]1C[C@H]2C(=O)NC3(CCC3)C(=O)N(C)[C@@H](C3CCCC3)C(=O)N(C)[C@H](C(=O)N(C)C)CC(=O)N(C)[C@@H](CC)C(=O)N[C@@H]([C@@H](C)CC)C(=O)N(C)CC(=O)N(C)[C@H]3CCCCN(C3=O)[C@@H](Cc3ccc(C(F)(F)F)cc3)C(=O)N(C)CC(=O)N[C@@H](CCc3cc(F)c(C(F)(F)F)c(F)c3)C(=O)N2C1 [PP0693] | 3.8 nM | – | – | C (A compound having a KD ratio of 0.1 or more and less than 3 is denoted as C) | C (A compound having a KD ratio of 0.1 or more and less than 3 is denoted as C) | – | – | – |
| CCOC[C@H]1C(=O)N[C@@H]([C@@H](C)CC)C(=O)N(C)CC(=O)N(C)[C@H]2C/C=C\CCN(C2=O)[C@@H](Cc2ccc(C(C)(F)F)cc2)C(=O)N(C)CC(=O)N[C@@H](CCc2ccc(C(F)(F)F)c(OC)c2)C(=O)N2C[C@@H](C)C[C@H]2C(=O)NC2(CC(C)(C)C2)C(=O)N(C)[C@@H](C2CCCC2)C(=O)N(C)[C@H](C(=O)N(C)CC)CC(=O)N1C [PP2699] | – | B (a compound having 3 or more and less than 10 is denoted as B) | A (a compound having 10 or more and less than 20 is denoted as A) | – | – | 14.2 nM | – | – |
| CC[C@H](C)[C@@H]1NC(=O)[C@H](CC(C)C)N(C)C(=O)C[C@@H](C(=O)N2CCOCC2)N(C)C(=O)[C@H](C2CCCC2)N(C)C(=O)C2(CCCC2)NC(=O)[C@@H]2CCCN2C(=O)[C@H](CCc2ccc(C(F)(F)F)c(Cl)c2)NC(=O)CN(C)C(=O)[C@H](Cc2ccc(C)cc2)N(CC(C)C)C(=O)[C@@H]2CCN2C(=O)[C@H](C)N(C)C1=O [PP0056] ([NMeL]I[NMeA][Aze][X40][Sar][hPhe(3-Cl-4-CF3)]P[Ac5c][NMeGly(cPent)][NMeD]-Morpholide; lactam N-11) | 49.6 nM | B (a compound having 3 or more and less than 10 is denoted as B) | C (A compound having a KD ratio of 0.1 or more and less than 3 is denoted as C) | – | – | – | – | – |
| CCCN1C(=O)[C@@H]2CCN2C(=O)[C@H](C)N(C)C(=O)[C@H]([C@@H](C)CC)NC(=O)[C@H](CC(C)C)N(C)C(=O)C[C@@H](C(=O)N2CCOCC2)N(C)C(=O)[C@H](C2CCCC2)N(C)C(=O)C2(CCCC2)NC(=O)[C@@H]2CC3(CC3)CN2C(=O)[C@H](CCc2ccc(C(F)(F)F)c(Cl)c2)NC(=O)CN(C)C(=O)[C@@H]1Cc1ccc(C(F)(F)F)cc1 [PP0282] ([NMeL]I[NMeA][Aze][NPrPhe(4-CF3)][Sar][hPhe(3-Cl-4-CF3)][Pro(4-spirocPr)][Ac5c][NMeGly(cPent)][NMeD]-Morpholide; lactam N-11) | 3.9 nM | C (A compound having a KD ratio of 0.1 or more and less than 3 is denoted as C) | C (A compound having a KD ratio of 0.1 or more and less than 3 is denoted as C) | – | – | – | – | – |
| CC[C@H](C)[C@@H]1NC(=O)[C@H](CC)N(C)C(=O)C[C@@H](C(=O)N(C)C)N(C)C(=O)[C@H](C2CCCC2)N(C)C(=O)C2(CCCC2)N(C)C(=O)[C@@H]2CCCN2C(=O)[C@H](CCc2cc(F)c(C(F)(F)F)c(F)c2)NC(=O)CN(C)C(=O)[C@H](Cc2ccc(C)cc2)N2CC/C=C\C[C@@H](C2=O)N(C)C(=O)CN(C)C1=O [PP1807] | 5 nM | – | – | – | – | – | B (a compound having 3 or more and less than 10 is denoted as B) | A (a compound having 10 or more and less than 20 is denoted as A) |
| CCCN1C(=O)[C@@H]2CCN2C(=O)[C@H](C)N(C)C(=O)[C@H](CC(F)(F)F)NC(=O)[C@H](CC(C)C)N(C)C(=O)C[C@@H](C(=O)N2CCOCC2)N(C)C(=O)[C@H](C2CCCC2)N(C)C(=O)C2(CCCC2)NC(=O)[C@@H]2CCCN2C(=O)[C@H](CCc2ccc(C(F)(F)F)c(Cl)c2)NC(=O)CN(C)C(=O)[C@@H]1Cc1ccc(C(F)(F)F)cc1 [PP0270] ([NMeL][Abu(4,4,4-F3)][NMeA][Aze][NPrPhe(4-CF3)][Sar][hPhe(3-Cl-4-CF3)]P[Ac5c][NMeGly(cPent)][NMeD]-Morpholide; lactam N-11) | 8.5 nM | B (a compound having 3 or more and less than 10 is denoted as B) | C (A compound having a KD ratio of 0.1 or more and less than 3 is denoted as C) | – | – | – | – | – |

Further lines, with some results ahead:

| IC50 [2] | SMILES | HRAS /KRAS (HRAS wild-type protein; [3]) | NRAS /KRAS [1, 4] | HRAS /KRAS (HRAS wild-type protein; [5]) | NRAS /KRAS [1, 6] | IC50 ([2]; NCI-H441 cells, 4 days, CellTiter-Glo, read-out: NCl-H441 IC50) | HRAS /KRAS (HRAS wild-type protein; ratio of KD value for HRAS wild-type protein to KD value for KRAS (SPR)) | NRAS /KRAS ([1]; ratio of KD value for GDP-bound NRAS wild-type protein to KD value for KRAS (SPR)) |
| --- | --- | --- | --- | --- | --- | --- | --- | --- |
| 1.1 nM | CC[C@H](C)[C@@H]1NC(=O)[C@@H]2CCCCCCc3ccc(cc3)C[C@@H](C(=O)N(C)CC(=O)N[C@@H](CCc3ccc(C(F)(F)F)c(OC)c3)C(=O)N3C[C@H](OC(C)C)C[C@H]3C(=O)NC3(CC(C)(C)C3)C(=O)N(C)[C@@H](C3CCCC3)C(=O)N(C)[C@H](C(=O)N(C)C)CC(=O)N2C)N2CC/C=C\C[C@@H](C2=O)N(C)C(=O)CN(C)C1=O [PP3067] | B (a compound having 3 or more and less than 10 is denoted as B) | A (a compound having 10 or more and less than 20 is denoted as A) | – | – | – | – | – |
| 11.1 nM | CCCOC[C@H]1C(=O)N[C@@H]([C@@H](C)CC)C(=O)N(C)CC(=O)N(C)[C@H]2C/C=C\CCN(C2=O)[C@@H](Cc2ccc(C)cc2)C(=O)N(C)CC(=O)N[C@@H](CCc2ccc(C(F)(F)F)c(Cl)c2)C(=O)N2C[C@H](C)C[C@H]2C(=O)NC2(CC(C)(C)C2)C(=O)N(C)[C@@H](C2CCCC2)C(=O)N(C)[C@H](C(=O)N(C)C)CC(=O)N1C [PP2234] | – | – | A (a compound having 10 or more and less than 20 is denoted as A) | A (a compound having 10 or more and less than 20 is denoted as A) | – | – | – |
| 4 nM | CCC[C@H]1C(=O)N[C@@H]([C@@H](C)CC)C(=O)N(C)CC(=O)N(C)[C@H]2C/C=C\CCN(C2=O)[C@@H](Cc2ccc(C(F)(F)F)cc2)C(=O)N(C)CC(=O)N[C@@H](CCc2cc(F)c(C(F)(F)F)c(F)c2)C(=O)N2C[C@H](OCC)C[C@H]2C(=O)NC2(CC(C)(C)C2)C(=O)N(C)[C@@H](C(CC)CC)C(=O)N(C)[C@H](C(=O)N(C)C)CC(=O)N1C [PP2125] | – | – | A (a compound having 10 or more and less than 20 is denoted as A) | AA (a compound having 20 or more is denoted as AA) | – | – | – |
| 104 nM | CCC(CC)[C@H]1C(=O)N(C)[C@H](C(=O)N(C)C)CC(=O)N(C)[C@@H](COC)C(=O)N[C@@H]([C@@H](C)CC)C(=O)N(C)CC(=O)N(C)[C@H]2C/C=C\CCN(C2=O)[C@@H](Cc2ccc(C(F)(F)F)cc2)C(=O)N(C)CC(=O)N[C@@H](CCc2ccc(Cl)c(Cl)c2)C(=O)N2CCOC[C@H]2C(=O)NC2(CC(C)(C)C2)C(=O)N1C [PP2941] | A (a compound having 10 or more and less than 20 is denoted as A) | AA (a compound having 20 or more is denoted as AA) | – | – | – | – | – |
| 4.6 nM | CCO[C@@H]1C[C@H]2C(=O)NC3(CCC3)C(=O)N(C)[C@@H](C(CC)CC)C(=O)N(C)[C@H](C(=O)N3CCCC3)CC(=O)N(C)[C@H]3CCC/C=C/c4ccc(cc4)C[C@@H](C(=O)N(C)CC(=O)N[C@@H](CCc4cc(F)c(C(F)(F)F)c(F)c4)C(=O)N2C1)N1CC/C=C\C[C@@H](C1=O)N(C)C(=O)CN(C1CC1)C(=O)[C@H]([C@@H](C)CC)NC3=O [PP2957] | A (a compound having 10 or more and less than 20 is denoted as A) | AA (a compound having 20 or more is denoted as AA) | – | – | – | – | – |
| 29.2 nM | CCC[C@H]1C(=O)N[C@@H]([C@@H](C)CC)C(=O)N(C)CC(=O)N(C)[C@H]2C/C=C\CCN(C2=O)[C@@H](Cc2ccc(C)cc2)C(=O)N(C)CC(=O)N[C@@H](CCc2ccc(Cl)c(Cl)c2)C(=O)N2C[C@H](OCC)C[C@H]2C(=O)NC2(CC(C)(C)C2)C(=O)N(C)[C@@H](C(CC)CC)C(=O)N(C)[C@H](C(=O)N(C)C)CC(=O)N1C [PP2184] | – | – | A (a compound having 10 or more and less than 20 is denoted as A) | AA (a compound having 20 or more is denoted as AA) | – | – | – |
